Measured values as given in patent US8466309B2, “Amino acid derivatives, method for preparing same, and therapeutic use thereof” (priority 2008, dated 2013).

How the values were obtained:
Format in all cases: in vivo
male OF1 mice [1] = experiment: Formalin test (phase I), number of paw lickings after oral administration; details: 120 minutes after administration (FIG. 2)
From the text: A/Formalin Test (Phase I) […]
The animals (male OF1 mice) come from the Charles River breeder (France) and weigh 25-35 g at the beginning of the experiment. The weight of each mouse is taken into account for administering the product.
The test is based on the procedure described by S. HUNSKAAR et al., Formalin test in mice, a useful technique for evaluating mild analgesics, J. Neurosci. Methods […], 14, 69-75.
The mice (n=8) are individually placed in a transparent enclosure (50×25 cm) and become accustomed to this environment for 20 minutes. After this period, 20 μL of formalin (5% HCHO) in solution in saline solution (H2O, 0.9% NaCl), are injected subcutaneously on the plantar face of the right paw of the animal. A 26 syringe connected to a microsyringe is used. Each mouse is then immediately placed back into the test enclosure and pain (nociceptive) responses are measured for 5 minutes (early phase). Only the lickings of the paw are counted. […]
The analgesic action of the product is measured by the decrease in the number of lickings of the lesioned paw, as compared with the number of lickings of the animal which has received the carrier alone. […]

male OF1 mice [2] = experiment: Von Frey test: mechanical allodynia after partial ligature of the sciatic nerve; details: oral 50 mg/kg, maximum at 60 min, day 14 post-surgery
Description: (§1) This test was described in detail by A. B. Malmberg and A. I. Basbaum, Partial sciatic nerve injury in the mouse as a model of neuropathic pain: behavioural and neuroanatomical correlates. Pain, (1998) 76, 215-222.
(§2) It was conducted on male OF1 mice (Charles River), of 18-20 g, n=39, by partial ligature of the sciatic nerve on the ipsilateral side. The animals are tested in the period (3-26 days) after the operation.
Measurement of hyperalgesia was carried out according to the method described by K. Hargreaves et al., A new sensitive method for measuring thermal nociception in cutaneous hyperalgesia, Pain, (1988), 32, 77-88, by using as a heat source, the “Plantar test” apparatus (Bioseb, France). The intensity of the nociceptive stimulus is calibrated to 8-10 s with an automatic stopping threshold (cut-off time) at 20 s. The average of the withdrawals of the paw induced by the heat, was measured on the ipsilateral paws (damaged nerve) and contralateral paws (intact nerve). […] Mechanical allodynia is measured as described by S. R. Chaplan et al., Quantitative assessment of tactile allodynia in the rat paw, J. Neurosci. […] The mechanical antiallodynic effect is measured by the method of Von Frey with filaments of increasing size exerting also increasing pressure.
The effect of the compound of Example 10 on mechanical allodynia is measured by the Von Frey test. […]

male OF1 mice [3] = experiment: Plantar test: thermal hyperalgesia after partial ligature of the sciatic nerve
Description: as §1, §2
Measurement of hyperalgesia was carried out according to the method described by K. Hargreaves et al., A new sensitive method for measuring thermal nociception in cutaneous hyperalgesia, Pain, (1988), 32, 77-88, by using as a heat source, the “Plantar test” apparatus (Bioseb, France). The intensity of the nociceptive stimulus is calibrated to 8-10 s with an automatic stopping threshold (cut-off time) at 20 s. The average of the withdrawals of the paw induced by the heat, was measured on the ipsilateral paws (damaged nerve) and contralateral paws (intact nerve). This measurement was carried out 3 times on each paw. Mechanical allodynia is measured as described by S. R. Chaplan et al., Quantitative assessment of tactile allodynia in the rat paw, J. Neurosci. Meth. (1994), 53, 55-63. The ipsilateral (lesion) and contralateral (control) paws are tested as earlier. The mechanical antiallodynic effect is measured by the method of Von Frey with filaments of increasing size exerting also increasing pressure.
FIG. 3: Neuropathic pain model: partial ligature of the sciatic nerve (mice). Response generated by per os administration of the carrier (□) or of the compound of Example 10 (▪): removal of the paw (in second) versus time (in minutes).
Carrier: EtOH/0.5% methylcellulose (1.5/98.5)
Tests carried out at day 14 post-surgery; ipsilateral paw
Abscissa: time in minutes, ordinate: withdrawal of the paw in seconds
Plantar test: evaluation of thermal hyperalgia
Average of the contralateral paws: compound 10 at 90 min=8.3 s.

Row | Compound | analgesic activity at 120 minutes (male OF1 mice [1]) | anti-allodynic effect, maximum, as % of the maximum response (non-treated control) (male OF1 mice [2]) [%] | withdrawal of the paw, average of the contralateral paws (male OF1 mice [3]; 50 mg/kg, at 90 min, intact nerve side) [s] | maximum effect on thermal hyperalgesia (male OF1 mice [3]; p.o. 50 mg/kg, at 80 min) [%] | withdrawal of the paw (ipsilateral paw) (male OF1 mice [3]; p.o. 50 mg/kg, at 80 min, plantar test, day 14 post-surgery) [s] | decrease of thermal hyperalgesia induced by partial ligature of the sciatic nerve (male OF1 mice [3]; p.o. 50 mg/kg, period from 45 to 150 min, day 14 post-surgery, ipsilateral paw)
1 | NH2—CH(CH2CH2SCH3)—CH2—S—S—CH2—CH(CH2C6H5)—CONH—CH2—CONH—CO—CH(CH3)—O—CO—OCH2CH3 [Compound 15] | no longer has any activity | – | – | – | – | –
2 | CSCCC(CSSCC(Cc1ccccc1)C(=O)NCC(=O)O)NC(=O)OC(C)OC(=O)C(C)C (stereo not drawn) [Example 10, 1-{1-[2-(carboxymethyl-carbamoyl)-3-phenyl-propyl-disulfanylmethyl]-3-methylsulfanyl-propylcarbamoyl-oxy}-ethyl isobutyric acid ester] | – | 75 | 8.3 | 100 | 8.2 ± 0.9 | 65-100%
